Results from ChEMBL document CHEMBL1144678, “Thiahomoisocitrate: a highly potent inhibitor of homoisocitrate dehydrogenase involved in the alpha-aminoadipate pathway” (Bioorg Med Chem, 2008).
pKi: −log10 of the molar value.

Experiments:
[1] = Inhibition of Saccharomyces cerevisiae homoisocitrate dehydrogenase
[2] = tested on: Saccharomyces cerevisiae; test: Activity of Saccharomyces cerevisiae homoisocitrate dehydrogenase

pKi [1] | Km [2] [µM] | kcat [2] [s⁻¹] | SMILES
4.92 |  |  | O=C(O)CSCC(=O)C(=O)O
7.01 |  |  | O=C(O)CS[C@H](C(=O)O)[C@@H](O)C(=O)O
5.00 | 20 | 0.59 | O=C(O)CO[C@H](C(=O)O)[C@@H](O)C(=O)O
 | 150 | 2 | O=C(O)CN[C@H](C(=O)O)[C@@H](O)C(=O)O
